Normal melting temperature data for one compound are collected here from the NIST ThermoML archive (doi:10.1021/je8003673).

The conditions of this series: Crystal; DTA.

± gives the expanded uncertainty stated by the source.

Turning to `Nc1ccc(N)c2c1C(=O)c1ccccc1C2=O` [1,4-diaminoanthraquinone], the Normal melting temperature turned out to be 243.12 ± 0.5 °C.
